According to article PMC9669016, “First-in-human phase Ia study of the PI3Kα inhibitor CYH33 in patients with solid tumors” (Nature Communications, 2022):

Assay: Clinical pharmacokinetics: plasma CYH33 and I27 by LC/MS/MS
Assay type: in vivo, human
Method: The PK characteristics of CYH33 and its active metabolite I27 were evaluated after single and multiple dose administrations. PK data were obtained from 37 patients from 7 dose cohorts: 1 mg (n = 1), 5 mg (n = 1), 10 mg (n = 2), 20 mg (n = 6), 30 mg (n = 12), 40 mg (n = 13), and 60 mg (n = 2). Intensive and sparse PK sampling was performed. Prior to initiating a continuous daily treatment cycle, the first 5 patients participated in a single dose PK treatment period with a 7-day washout in order to determine the terminal-phase half-life (t1/2) of CYH33 and its active metabolite I27. Based on the single dose PK data for CYH33 of the first 5 patients at doses of 1, 5, 10 and 20 mg, the PK and metabolic characteristics of CYH33 and I27 were evaluated. Combined with the pre-specified rules in the protocol and deliberation from the SMC, subsequent patients directly entered the continuous dose phase.
Blood samples for PK evaluation were collected at: (1) during the single dose phase: on day 1 pre-dose and 0.5, 1, 2, 4, 8, 12, 24, 36, 48, and 72 h post-dose; (2) during the continuous dose phase: C1D1/Cycle 1 Day 28 pre-dose, and 0.5, 1, 2, 3, 4, 6, 8, 12, and 24 h post-dose; and C1D8/Day 15 pre-dose. Plasma concentrations of CYH33 and I27 were analyzed using a liquid chromatography-tandem mass spectrometry (LC/MS/MS) assay (Shimadzu Corporation, LC-30AD) with a lower limit of quantification (LLOQ) of 2.585 ng/mL and 1.0 ng/mL for CYH33 and I27, respectively. […] Blood samples for measuring the FBG level were collected within 30 min before dosing on C1D1, C1D15, and on the first day of subsequent treatment cycles.

[1] = CYH33, Cycle 1 Day 1, 5 mg (n = 1)
[2] = CYH33, Cycle 1 Day 1, 10 mg (n = 2)
[3] = CYH33, Cycle 1 Day 1, 20 mg (n = 5)

Molecule `COC(=O)Nc1cc(C(F)(F)F)c(-c2nc(N3CCOCC3)c3cc(CN4CCN(S(C)(=O)=O)CC4)cn3n2)cn1` [CYH33, methyl (5-(6-((4-(methylsulfonyl)piperazin-1-yl)methyl)−4-morpholinopyrrolo[2,1-f][1,2,4]triazin-2-yl)−4-(trifluoromethyl)pyridin-2-yl)carbamate] has a CYH33 plasma concentration, mean (C1D1, 1 mg, 1 h) of 4.6 ng/mL, a CYH33 plasma concentration, mean (C1D1, 1 mg, 2 h) of 3.8 ng/mL and a CYH33 plasma concentration, mean (C1D1, 1 mg, 4 h) of 2.9 ng/mL. The CYH33 plasma concentration, mean (C1D1, 1 mg, 8 h) was 1.8 ng/mL, the CYH33 plasma concentration, mean (C1D1, 1 mg, 12 h) was 0 ng/mL and the CYH33 plasma concentration, mean (C1D1, 1 mg, 36 h) was 0 ng/mL. For the same molecule, the CYH33 plasma concentration, mean (C1D1, 1 mg, 48 h) was 0 ng/mL, the CYH33 plasma concentration, mean (C1D1, 1 mg, 72 h) was 0 ng/mL and the CYH33 plasma concentration, mean (C1D1, 5 mg, 1 h) was 18.1 ng/mL. The CYH33 plasma concentration, mean (C1D1, 5 mg, 2 h) was 24.6 ng/mL, the CYH33 plasma concentration, mean (C1D1, 5 mg, 4 h) was 19.5 ng/mL and the CYH33 plasma concentration, mean (C1D1, 5 mg, 8 h) was 11.8 ng/mL. For the same molecule, the CYH33 plasma concentration, mean (C1D1, 5 mg, 12 h) was 9.7 ng/mL, the CYH33 plasma concentration, mean (C1D1, 5 mg, 36 h) was 3.8 ng/mL and the CYH33 plasma concentration, mean (C1D1, 5 mg, 48 h) was 2.5 ng/mL. For the same molecule, the CYH33 plasma concentration, mean (C1D1, 10 mg, 1 h) was 30.2 ng/mL, the CYH33 plasma concentration, mean (C1D1, 10 mg, 2 h) was 35.3 ng/mL and the CYH33 plasma concentration, mean (C1D1, 10 mg, 8 h) was 30.2 ng/mL. It also gave a CYH33 plasma concentration, mean (C1D1, 10 mg, 12 h) of 23.9 ng/mL, a CYH33 plasma concentration, mean (C1D1, 10 mg, 36 h) of 9.3 ng/mL and a CYH33 plasma concentration, mean (C1D1, 10 mg, 48 h) of 6.8 ng/mL. The “CYH33 plasma concentration, mean” value (C1D1, 20 mg, 0.5 h, in ng/mL) was 26.7325, the “CYH33 plasma concentration, mean” value (C1D1, 20 mg, 1 h, in ng/mL) was 44.192 and the “CYH33 plasma concentration, mean” value (C1D1, 20 mg, 2 h, in ng/mL) was 54.18. For the same molecule, the “CYH33 plasma concentration, mean” value (C1D1, 20 mg, 3 h, in ng/mL) was 46.425, the “CYH33 plasma concentration, mean” value (C1D1, 20 mg, 6 h, in ng/mL) was 32.9075 and the “CYH33 plasma concentration, mean” value (C1D1, 20 mg, 8 h, in ng/mL) was 36.04. For the same molecule, the CYH33 plasma concentration, mean (C1D1, 20 mg, 36 h) was 23.6 ng/mL, the CYH33 plasma concentration, mean (C1D1, 20 mg, 48 h) was 15.8 ng/mL and the “CYH33 plasma concentration, mean” value (C1D1, 30 mg, 0.5 h, in ng/mL) was 24.6458. For the same molecule, the “CYH33 plasma concentration, mean” value (C1D1, 30 mg, 1 h, in ng/mL) was 57.5417, the “CYH33 plasma concentration, mean” value (C1D1, 30 mg, 2 h, in ng/mL) was 79.1167 and the “CYH33 plasma concentration, mean” value (C1D1, 30 mg, 3 h, in ng/mL) was 79.1917. The “CYH33 plasma concentration, mean” value (C1D1, 30 mg, 6 h, in ng/mL) was 64.9583, the “CYH33 plasma concentration, mean” value (C1D1, 30 mg, 8 h, in ng/mL) was 60.1583 and the “CYH33 plasma concentration, mean” value (C1D1, 30 mg, 24 h, in ng/mL) was 43.65. The CYH33 plasma concentration, mean (C1D1, 30 mg, 48 h) was 42.5 ng/mL, the “CYH33 plasma concentration, mean” value (C1D1, 40 mg, 1 h, in ng/mL) was 78.4333 and the CYH33 plasma concentration, mean (C1D1, 40 mg, 2 h) was 87 ng/mL. For the same molecule, the CYH33 plasma concentration, mean (C1D1, 40 mg, 3 h) was 88.2 ng/mL, the “CYH33 plasma concentration, mean” value (C1D1, 40 mg, 4 h, in ng/mL) was 78.0667 and the “CYH33 plasma concentration, mean” value (C1D1, 40 mg, 6 h, in ng/mL) was 62.5333. The “CYH33 plasma concentration, mean” value (C1D1, 40 mg, 8 h, in ng/mL) was 57.6333, the “CYH33 plasma concentration, mean” value (C1D1, 40 mg, 12 h, in ng/mL) was 47.8667 and the CYH33 plasma concentration, mean (C1D1, 40 mg, 48 h) was 45.2 ng/mL. The CYH33 plasma concentration, mean (C1D1, 60 mg, 1 h) was 55.6 ng/mL, the “CYH33 plasma concentration, mean” value (C1D1, 60 mg, 2 h, in ng/mL) was 86.475 and the “CYH33 plasma concentration, mean” value (C1D1, 60 mg, 3 h, in ng/mL) was 95.325. The “CYH33 plasma concentration, mean” value (C1D1, 60 mg, 4 h, in ng/mL) was 109.05, the “CYH33 plasma concentration, mean” value (C1D1, 60 mg, 6 h, in ng/mL) was 98.025 and the CYH33 plasma concentration, mean (C1D1, 60 mg, 8 h) was 96.2 ng/mL. For the same molecule, the “CYH33 plasma concentration, mean” value (C1D1, 60 mg, 12 h, in ng/mL) was 78.575, the CYH33 plasma concentration, mean (C1D1, 60 mg, 48 h) was 61.4 ng/mL and the CYH33 plasma concentration, mean (C1D28, 1 mg, 0.5 h) was 2.38 ng/mL. It also gave a CYH33 plasma concentration, mean (C1D28, 1 mg, 1 h) of 4.57 ng/mL, a CYH33 plasma concentration, mean (C1D28, 1 mg, 2 h) of 4.43 ng/mL and a CYH33 plasma concentration, mean (C1D28, 1 mg, 8 h) of 2.84 ng/mL. For the same molecule, the CYH33 plasma concentration, mean (C1D28, 1 mg, 12 h) was 1.9 ng/mL, the CYH33 plasma concentration, mean (C1D28, 1 mg, 24 h) was 0 ng/mL and the CYH33 plasma concentration, mean (C1D28, 5 mg, 0.5 h) was 48.6 ng/mL. For the same molecule, the CYH33 plasma concentration, mean (C1D28, 5 mg, 1 h) was 56.2 ng/mL, the CYH33 plasma concentration, mean (C1D28, 5 mg, 2 h) was 43 ng/mL and the CYH33 plasma concentration, mean (C1D28, 5 mg, 8 h) was 23.5 ng/mL. The CYH33 plasma concentration, mean (C1D28, 5 mg, 12 h) was 20 ng/mL, the CYH33 plasma concentration, mean (C1D28, 5 mg, 24 h) was 15.1 ng/mL and the CYH33 plasma concentration, mean (C1D28, 10 mg, 0.5 h) was 49.9 ng/mL. For the same molecule, the CYH33 plasma concentration, mean (C1D28, 10 mg, 1 h) was 61.4 ng/mL, the CYH33 plasma concentration, mean (C1D28, 10 mg, 2 h) was 77.5 ng/mL and the CYH33 plasma concentration, mean (C1D28, 10 mg, 8 h) was 55.7 ng/mL. The CYH33 plasma concentration, mean (C1D28, 10 mg, 12 h) was 47.9 ng/mL, the CYH33 plasma concentration, mean (C1D28, 10 mg, 24 h) was 35.4 ng/mL and the “CYH33 plasma concentration, mean” value (C1D28, 20 mg, 0.5 h, in ng/mL) was 110.84. The CYH33 plasma concentration, mean (C1D28, 20 mg, 1 h) was 134 ng/mL, the “CYH33 plasma concentration, mean” value (C1D28, 20 mg, 2 h, in ng/mL) was 135.8 and the “CYH33 plasma concentration, mean” value (C1D28, 20 mg, 6 h, in ng/mL) was 117.175. The “CYH33 plasma concentration, mean” value (C1D28, 20 mg, 8 h, in ng/mL) was 120.72, the “CYH33 plasma concentration, mean” value (C1D28, 20 mg, 12 h, in ng/mL) was 106.84 and the “CYH33 plasma concentration, mean” value (C1D28, 20 mg, 24 h, in ng/mL) was 83.68. For the same molecule, the “CYH33 plasma concentration, mean” value (C1D28, 30 mg, 0.5 h, in ng/mL) was 149.367, the “CYH33 plasma concentration, mean” value (C1D28, 30 mg, 1 h, in ng/mL) was 154.011 and the “CYH33 plasma concentration, mean” value (C1D28, 30 mg, 2 h, in ng/mL) was 172.178. The “CYH33 plasma concentration, mean” value (C1D28, 30 mg, 6 h, in ng/mL) was 163.956, the “CYH33 plasma concentration, mean” value (C1D28, 30 mg, 8 h, in ng/mL) was 162.122 and the “CYH33 plasma concentration, mean” value (C1D28, 30 mg, 12 h, in ng/mL) was 143.189. For the same molecule, the “CYH33 plasma concentration, mean” value (C1D28, 40 mg, 0.5 h, in ng/mL) was 167.057, the “CYH33 plasma concentration, mean” value (C1D28, 40 mg, 1 h, in ng/mL) was 191.129 and the “CYH33 plasma concentration, mean” value (C1D28, 40 mg, 2 h, in ng/mL) was 206.714. The “CYH33 plasma concentration, mean” value (C1D28, 40 mg, 3 h, in ng/mL) was 262.333, the “CYH33 plasma concentration, mean” value (C1D28, 40 mg, 6 h, in ng/mL) was 245.333 and the “CYH33 plasma concentration, mean” value (C1D28, 40 mg, 8 h, in ng/mL) was 166.029. For the same molecule, the “CYH33 plasma concentration, mean” value (C1D28, 40 mg, 12 h, in ng/mL) was 158.629, the “CYH33 plasma concentration, mean” value (C1D28, 40 mg, 24 h, in ng/mL) was 134.657 and the CYH33 plasma concentration, mean (C1D28, 60 mg, 0.5 h) was 155 ng/mL. For the same molecule, the CYH33 plasma concentration, mean (C1D28, 60 mg, 1 h) was 184 ng/mL, the CYH33 plasma concentration, mean (C1D28, 60 mg, 2 h) was 198 ng/mL and the CYH33 plasma concentration, mean (C1D28, 60 mg, 3 h) was 193 ng/mL. The CYH33 plasma concentration, mean (C1D28, 60 mg, 6 h) was 205 ng/mL, the CYH33 plasma concentration, mean (C1D28, 60 mg, 8 h) was 181 ng/mL and the CYH33 plasma concentration, mean (C1D28, 60 mg, 12 h) was 163 ng/mL. The CYH33 plasma concentration, mean (C1D28, 60 mg, 24 h) was 135 ng/mL, the “CL/F, mean (CV%)” value [1] was 11.6 L/h and the “V/F, mean (CV%)” value [1] was 322.8 L. The “CL/F, mean (CV%)” value [2] was 9.2 (11) L/h, the “V/F, mean (CV%)” value [2] was 263.2 (24) L and the “CL/F, mean (CV%)” value [3] was 9.1 L/h. The “V/F, mean (CV%)” value [3] was 274.2 L and the “CLss/F, mean” value (CYH33, Cycle 1 Day 28, 1 mg (n=1)) was 19.4 L/h.
